How the values were obtained:
Assay type in all cases: in vivo
Aβ42 = test: Triton TX-100 soluble Aβ42 in APP23 mouse brain; details: APP23 mice
Protocol: (§1) Frozen mouse forebrains were weighed and homogenized in 9 volumes (w/v) of ice-cold TBS-Complete (20 mM Tris-HCl pH 7.4, 137 mM NaCl, 1× Complete [Protease Inhibitor Cocktail Tablets: 1 836 145, Roche Diagnostics GmbH, Penzberg, Germany]) by sonication (90% duty cycle, output control 5, 40-55 pulses, [Sonifier 450, Branson]). After homogenization several 50 μl aliquots were prepared for analysis and were stored at −80° C.
Human Aβ40 and 42 in mice was determined with the Meso Scale Discovery (MSD) 96-well MULTI-ARRAY human/rodent (6E10) Aβ40/42 Assay (Meso Scale Discovery, Rockville, Md., USA). The assay was performed according to the manufacturer's instructions except for the calibration curve and the sample preparations. […]
The calibration curve was prepared in a corresponding dilution of 1% Blocker A solution spiked with synthetic Aβ1-40 peptide (1.56-100 pg/ml) except for non-transgenic mouse brain samples: In this case, the calibration curve was prepared in a correspondingly diluted APP knockout mouse forebrain spiked with synthetic Aβ1-40 peptide (1.56-100 pg/ml). […] The relative units for samples and standards were imported into SOFTmax PRO 4.0 for calculation of standard curves and quantification of samples. […]

sAPPβ (Swe) = test: Triton TX-100 soluble sAPPβ (Swe) in APP23 mouse brain; details: APP23 mice
Protocol: as §1
Brain homogenates were extracted with 1% Triton X-100 in buffer and the resulting supernatant was considered to represent soluble forms of APP metabolites. In addition to Aβ40 and 42, we determined the N-terminal APP fragments sAPPα (direct cleavage product of α-secretase) and sAPPβ (Swe) (direct product of BACE1 cleavage). […] Since no change in the APP expression and Aβ generation is known to happen during this age, it is assumed that the increased values in the vehicle group (18-20 mo old) arise from “leakage” out of the Aβ deposits (which increase several fold, see below).

Aβ40 = test: First-in-human study: Aβ40 in CSF; details: for Aβ40 % change from baseline, Mean (SD) / Aβ40 % change from baseline, Median: CSF, 2 weeks; for lowering of CSF Aβ40 concentrations, up to: healthy elderly subjects
Protocol: The purpose of this study was to determine the single and multiple maximum tolerated dose of Compound 1 and to assess the pharmacokinetic/pharmacodynamic (PK/PD) relationship using Aβ in CSF as primary PD biomarker.
Pharmacodynamic assessments using Aβ concentrations in CSF as primary biomarker of drug action were also been applied in healthy elderly subjects. Dose-dependent lowering of Aβ40 concentrations was determined up to approximately 80% and 90% after single and multiple dosing, respectively (Tables 14 and 15, FIG. 9).
In the completed first-in-human and 3-month dose-ranging safety and tolerability clinical studies described in Examples 5 and 6, Aβ concentrations in CSF were obtained by means of lumbar punctures before the first dose (baseline) and respectively after 2 weeks and 3 months of multiple dosing. ApoE4 genotype also was obtained in the subjects who consented. The percent change from baseline in Aβ40 and Aβ42 concentrations was calculated in subjects who took the study treatment and had no major protocol deviation with potential impact on the evaluation of the pharmacodynamic effect. Tables 18 to 21 below provide summary statistics of the percent change from baseline by treatment group and ApoE genotype (E4 heterozygotes versus E4 non-carriers). Only one subject with CSF data was E4 homozygote (from the 3-month dose-ranging safety and tolerability study).

[1] = multiple-dose 10 mg, Day 15 (24 h post last dose)
[2] = multiple-dose 30 mg, Day 15 (24 h post last dose)
[3] = multiple-dose 90 mg, Day 15 (24 h post last dose)
[4] = multiple-dose 300 mg, Day 15 (24 h post last dose)

## C[C@@]1(c2nc(NC(=O)c3ncc(C(F)(F)F)cc3Cl)ccc2F)CO[C@@](C)(C(F)(F)F)C(N)=N1 [Compound 1, N-(6-((3R,6R)-5-amino-3,6-dimethyl-6-(trifluoromethyl)-3,6-dihydro-2H-1,4-oxazin-3-yl)-5-fluoropyridin-2-yl)-3-chloro-5-(trifluoromethyl)picolinamide]
Aβ42; 0.03 g/kg vs vehicle
  Aβ42 change vs vehicle (Triton TX-100 soluble, brain): −20.1%
Aβ42; 0.3 g/kg vs vehicle
  Aβ42 change vs vehicle (Triton TX-100 soluble, brain): −77.3%
sAPPβ (Swe); 0.03 g/kg vs vehicle
  sAPPβ (Swedish) change vs vehicle: −29.0%
sAPPβ (Swe); 0.3 g/kg vs vehicle
  sAPPβ (Swedish) change vs vehicle: −77.7%
sAPPβ (Swe); low dose 0.03 g/kg food
  reduction of soluble APP (Swe): 29%
Aβ40; 10 mg, E4 heterozygotes
  Aβ40 % change from baseline, Mean (SD): −56 (10) %
  Aβ40 % change from baseline, Median: −53%
Aβ40; 10 mg, E4 non-carriers
  Aβ40 % change from baseline, Mean (SD): −59 (7) %
  Aβ40 % change from baseline, Median: −61%
Aβ40; 30 mg, E4 non-carriers
  Aβ40 % change from baseline, Mean (SD): −80 (4) %
  Aβ40 % change from baseline, Median: −81%
Aβ40; 90 mg, E4 heterozygotes
  Aβ40 % change from baseline, Mean (SD): −90 (2) %
  Aβ40 % change from baseline, Median: −90%
Aβ40; 90 mg, E4 non-carriers
  Aβ40 % change from baseline, Mean (SD): −89 (2) %
  Aβ40 % change from baseline, Median: −90%
Aβ40; 300 mg, E4 heterozygotes (n 1)
  Aβ40 % change from baseline, Mean (SD): −93%
  Aβ40 % change from baseline, Median: −93%
Aβ40; 300 mg, E4 non-carriers
  Aβ40 % change from baseline, Mean (SD): −94 (1) %
  Aβ40 % change from baseline, Median: −94%
Aβ40; multiple dosing
  lowering of CSF Aβ40 concentrations, up to: ~90%
Aβ40; single dosing
  lowering of CSF Aβ40 concentrations, up to: approximately 80%
Aβ40; [1]
  Aβ40 in CSF percent change from baseline, Mean (SD): −60.1 (9.91) %
  Aβ40 in CSF percent change from baseline, Median: −61.5%
Aβ40; [2]
  Aβ40 in CSF percent change from baseline, Mean (SD): −80.0 (3.89) %
  Aβ40 in CSF percent change from baseline, Median: −80.2%
Aβ40; [3]
  Aβ40 in CSF percent change from baseline, Mean (SD): −88.2 (3.07) %
  Aβ40 in CSF percent change from baseline, Median: −89.1%
Aβ40; [4]
  Aβ40 in CSF percent change from baseline, Mean (SD): −93.6 (0.61) %
  Aβ40 in CSF percent change from baseline, Median: −93.5%
Aβ40; single-dose 10 mg, 12 h
  Aβ40 in CSF percent change from baseline, Mean (SD): −11.6 (8.31) %
  Aβ40 in CSF percent change from baseline, Median: −12.5%
  Aβ40 in CSF percent change from baseline, Min-Max: −21-1%
Aβ40; single-dose 10 mg, 24 h
  Aβ40 in CSF percent change from baseline, Mean (SD): −15.0 (10.21) %
  Aβ40 in CSF percent change from baseline, Median: −14.3%
  Aβ40 in CSF percent change from baseline, Min-Max: −31-−4%
Aβ40; single-dose 10 mg, 34 h
  Aβ40 in CSF percent change from baseline, Mean (SD): −9.7 (14.72) %
  Aβ40 in CSF percent change from baseline, Median: −12.5%
  Aβ40 in CSF percent change from baseline, Min-Max: −25-10%
Aβ40; single-dose 90 mg, 12 h
  Aβ40 in CSF percent change from baseline, Mean (SD): −14.2 (35.83) %
  Aβ40 in CSF percent change from baseline, Median: −28.0%
  Aβ40 in CSF percent change from baseline, Min-Max: −36-58%
Aβ40; single-dose 90 mg, 24 h
  Aβ40 in CSF percent change from baseline, Mean (SD): −44.8 (12.48) %
  Aβ40 in CSF percent change from baseline, Median: −49.2%
  Aβ40 in CSF percent change from baseline, Min-Max: −55-−25%
Aβ40; single-dose 90 mg, 34 h
  Aβ40 in CSF percent change from baseline, Mean (SD): −50.0 (8.87) %
  Aβ40 in CSF percent change from baseline, Median: −45.4%
  Aβ40 in CSF percent change from baseline, Min-Max: −60-−41%
Aβ40; single-dose 300 mg, 12 h
  Aβ40 in CSF percent change from baseline, Mean (SD): −35.8 (16.40) %
  Aβ40 in CSF percent change from baseline, Median: −44.1%
  Aβ40 in CSF percent change from baseline, Min-Max: −54-−13%
Aβ40; single-dose 300 mg, 24 h
  Aβ40 in CSF percent change from baseline, Mean (SD): −68.3 (10.65) %
  Aβ40 in CSF percent change from baseline, Median: −72.5%
  Aβ40 in CSF percent change from baseline, Min-Max: −79-−52%
Aβ40; single-dose 300 mg, 34 h
  Aβ40 in CSF percent change from baseline, Mean (SD): −78.3 (4.75) %
  Aβ40 in CSF percent change from baseline, Median: −79.3%
  Aβ40 in CSF percent change from baseline, Min-Max: −84-−69%
Aβ40; single-dose 750 mg, 12 h
  Aβ40 in CSF percent change from baseline, Mean (SD): −36.2 (13.58) %
  Aβ40 in CSF percent change from baseline, Median: −38.6%
  Aβ40 in CSF percent change from baseline, Min-Max: −53-−10%
Aβ40; single-dose 750 mg, 24 h
  Aβ40 in CSF percent change from baseline, Mean (SD): −67.4 (15.54) %
  Aβ40 in CSF percent change from baseline, Median: −70.6%
  Aβ40 in CSF percent change from baseline, Min-Max: −82-−36%
Aβ40; single-dose 750 mg, 34 h
  Aβ40 in CSF percent change from baseline, Mean (SD): −79.1 (8.88) %
  Aβ40 in CSF percent change from baseline, Median: −82.3%
  Aβ40 in CSF percent change from baseline, Min-Max: −87-−60%
